Data reported in patent US20050175692A1, “Pharmaceutical formulation comprising melatonin” (Neurim Pharmaceuticals (1991) ltd., priority 2002, published 2005).

Tests used:
[1] = test system: volunteers; experiment: Treatment-emergent adverse events in the psychomotor/driving study; design: species or system human; conditions: in vivo
From the text: (§1) A battery of performance tests and driving skill tests were given to the patients at pre-selected intervals after the administration of the tablet. These included psychomotor tasks for reaction test, vigilance and co-ordination: ARCI 49, Grooved Pegboard, Rivermead story, picture presentation, simple reaction time, digit vigilance task, choice reaction time, delayed picture recognition, visual tracking, driving simulator: highway driving and wake-EEG.

[2] = test system: volunteers; experiment: Cognitive Drug Research tests (attention, episodic secondary memory, motor co-ordination); type: in vivo, human
From the text: as §1

[3] = test system: volunteers; experiment: Grooved Pegboard; type: in vivo, human; conditions: 1 and 4 hours post-dosing, compared to baseline, placebo and sustained release melatonin 2 mg
From the text: as §1

[4] = test system: volunteers; experiment: ARCI 49 (MBG, LSD, PCAG, BG scales); type: in vivo, human
From the text: as §1

[5] = test system: volunteers; experiment: Wake EEG; type: in vivo, human
From the text: as §1

[6] = test system: volunteers; experiment: Driving simulator: highway driving; type: in vivo, human; conditions: 2 hours post-dosing
From the text: as §1

[7] = single evening tablet; melatonin sustained release 2 mg, zolpidem 10 mg
Experimental: Method. The pharmacokinetics of melatonin (2 mg sustained release formulation), zolpidem (10 mg) and their combination were assessed in 16 volunteers (12 males and 4 females).
Blood samples were withdrawn from the subjects at pre-selected intervals after the administration of the tablets.

[8] = test system: volunteers; experiment: Rivermead story (immediate and delayed recall); type: in vivo, human; conditions: compared to placebo and sustained release melatonin 2 mg
From the text: as §1

## Cc1ccc(-c2nc3ccc(C)cn3c2CC(=O)N(C)C)cc1 [Zolpidem, N,N,6-trimethyl-2-p-toyl-imidazo[1,2,-a]pyridine-3-acetamide L-(+)-tartrate (2:1)]
[1]
  Incidence of somnolence compared with melatonin alone and placebo: clearly increased
[2]; dosed alone, melatonin SR 2 mg or zolpidem 10 mg
  Cognitive effects compared to placebo: several acute impairments
[2]; zolpidem 10 mg alone vs placebo
  Time post-dosing by which acute impairments were resolved: ≤ 12.5 h
[3]
  Duration of task execution (ipsi and contra lateral): significant increase
[4]; first 4 hours post-dosing
  Sedative effect (increase of the PCAG scale) vs placebo: strong significant sedative effect
[4]; in vivo
  Time after administration at which PCAG sedative effect reached the maximum: about 4 hour
[5]; driving conditions, not different vs placebo
  Alpha activity in driving conditions vs sustained release melatonin alone: significantly increased
[5]; in vivo
  Theta rhythm on frontal leads vs placebo: increased
[5]; resting conditions
  Alpha activity in resting conditions vs placebo: decreases in alpha
[6]
  Number of collisions: increased number of collisions
[7]
  Time to maximum, zolpidem in serum, Mean (SD): 1.8 (1.2) h
  maximum concentration, zolpidem in serum, Mean (SD): 0.22 (0.11) mcg/ml
[8]
  Memory efficiency, both recalls (immediate and delayed): decreased
